Experimental data reported in patent US7799809B2, “Carboxamide compounds and their use as calpain inhibitors” (Abbott GmbH & Co. KG, priority 2006, dated 2010).

Tests used:
Format in all cases: biochemical
cathepsin L = molecular target: T1, cathepsin L (Homo sapiens, UniProt P07711); test: Cathepsin L enzyme inhibition in vitro (kinetic fluorescence assay); details: cathepsin L isolated from human liver vs calpain I
T1 construct: cathepsin L—isolated from human liver (Calbiochem #219402); purchased Calbiochem 219402; host or cells: human liver (tissue-derived)
Procedure, shortened: (§1)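 Cathepsin B (0.25 nM, human liver) with 100 μM Z-Phe-Arg-AMC; L (1 nM, human liver) with 2 μM Z-Phe-Arg-AMC; S (0.5 nM, recombinant) with 20 μM Z-Val-Val-Arg-AMC. pH 6.0 MES buffer, 2.5 mM L-cysteine, room temperature. Kinetic fluorescence (ex 390/em 460 nm); apparent Ki from IC50 by Cheng-Prusoff.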

cathepsin S = molecular target: T2, cathepsin S (Homo sapiens, UniProt P25774); test: Cathepsin S enzyme inhibition in vitro (kinetic fluorescence assay); details: recombinant human cathepsin S vs calpain I
T2 construct: purchased Calbiochem 219343; host or cells: E. coli
Procedure, shortened: as §1

cathepsin B = molecular target: T3, cathepsin B (Homo sapiens, UniProt P07858); test: Cathepsin B enzyme inhibition in vitro (kinetic fluorescence assay); details: cathepsin B isolated from human liver vs calpain I
T3 construct: cathepsin B—isolated from human liver (Calbiochem #219362); purchased Calbiochem 219362; host or cells: human liver (tissue-derived)
Procedure: (§2) The following solutions and buffers were employed: • HBS (for 40 ml): 800 μl M HEPES; 2.16 ml 100 mM KCl; 4.8 ml 1M NaCl; 3.59 ml 5% glucose; 60 μl μM MgSO4; 400 μl 100 mM Na pyruvate, 28.19 ml water; pH 7.2-7.5. • lysis buffer (for 20 ml): 400 μl M Tris pH 8.2; 2.74 ml 1M NaCl; 520 μl 0.5M EDTA; 2 ml 10% triton X-100; 0.8 ml (=1:25) CompletePlus (1 tablet/2 ml H2O); 200 μl 100 mM Pefabloc; 13.34 ml water, pH 8.2. • TBST (10×) (for 1 l): 100 mM Tris (12.1 g); 1.5M NaCl (87 g); 1% Tween 20 (10 g), adjusted to pH 8. I Enzyme Inhibition In Vitro: • Testing for blockade of the corresponding enzymic activities was carried out by means of kinetic fluorescence assays (excitation 390 nm, emission 460 nm). • Apparent Ki values were calculated from the experimentally determined IC50 values by the Cheng-Prussoff relation assuming a reversible competitive enzyme inhibition. The Km values of the substrates used under the assay conditions indicated above were: 90 μM (Z-Phe-Arg-AMC, cathepsin B), 10 μM (Z-Gly-Pro-Arg-AMC, cathepsin K), 2 μM (Z-Phe-Arg-AMC, cathepsin L), and 30 μM (Z-Val-Val-Arg-AMC, cathepsin S). • The indicated Ki values are averages of the inhibition constants calculated on the basis of 2 to 4 independent dose-effect plots.
(§3) The following assays were used: • 1. Calpain I: • 20 nM calpain-I—isolated from human erythrocytes (Calbiochem #208713), 100 μM Suc-Leu-Tyr-AMC (Bachem #1-1355) as substrate in buffer with 62 mM imidazole, 0.3 mM CaCl2, 0.10% CHAPS, 0.05% BSA, 1 mM DTT at pH 7.3 and room temperature. • 2. Cathepsin B: • 0.25 nM cathepsin B—isolated from human liver (Calbiochem #219362), 100 μM Z-Phe-Arg-AMC (Bachem #I-1160) as substrate 50 mM MES, 2 mM EDTA, 0.05% Brij 35, 2.5 mM L-cysteine, pH 6.0, room temperature. • 3. Cathepsin K: • 3 nM cathepsin K—activated from recombinant human procathepsin K from E. coli (Calbiochem #342001), 10 μM Z-Gly-Pro-Arg-AMC (Biomol #P-142) as substrate in 50 mM MES, 2 mM EDTA, 0.05% Brij 35, 2.5 mM L-cysteine, pH 6.0, room temperature. • 4. Cathepsin L: • 1 nM cathepsin L—isolated from human liver (Calbiochem #219402), 2 μM Z-Phe-Arg-AMC (Bachem #1-1160) as substrate in 50 mM MES, 2 mM EDTA, 0.05% Brij 35, 2.5 mM L-cysteine, pH 6.0, room temperature. • 5. Cathepsin S: • 0.5 nM recombinant human cathepsin S from E. coli (Calbiochem #219343), 20 μM Z-Val-Val-Arg-AMC (Bachem #1-1540) as substrate in 50 mM MES, 2 mM EDTA, 0.05% Brij 35, 2.5 mM L-cysteine, pH 6.0, room temperature. • The results of the in vitro determination are indicated in Table 1. The following abbreviations are used in Table 1: • The “Calpain activity” column, ++ stands for a calpain Ki (Ki(calpain)) of ≦40 nM and + means: 40 nM<Ki(Calpain)≦100 nM. • The “Sel. cat. B” column indicates the Ki(cathepsin B)/Ki(calpain) ratio. In this connection, ++ means a Ki(cathepsin B)/Ki(calpain) ratio of ≧30 and + means 10≦Ki(cathepsin B)/Ki(calpain)<30. • The “Sel. cat. K” column indicates the Ki(cathepsin K)/Ki(calpain) ratio. In this connection, ++ means a Ki(cathepsin K)/Ki(calpain) ratio of ≧30 and + means 10≦Ki(cathepsin K)/Ki(calpain)<30. • The “Sel. cat. L” column indicates the Ki(cathepsin L)/Ki(calpain) ratio. In this connection, ++ means a Ki(cathepsin L)/Ki(calpain) ratio of ≧50 and + means 30≦Ki(cathepsin L)/Ki(calpain)<50. • The “Sel. cat. S” column indicates the Ki(cathepsin S)/Ki(calpain) ratio. In this connection, ++ means a Ki(cathepsin S)/Ki(calpain) ratio of ≧100 and + means 50≦Ki(cathepsin S)/Ki(calpain)<100.

cathepsin K = molecular target: T4, cathepsin K (Homo sapiens, UniProt P43235); test: Cathepsin K enzyme inhibition in vitro (kinetic fluorescence assay); details: cathepsin K activated from recombinant human procathepsin K vs calpain I
T4 construct: purchased Calbiochem 342001; host or cells: E. coli
T4 sequence (P43235 115-329): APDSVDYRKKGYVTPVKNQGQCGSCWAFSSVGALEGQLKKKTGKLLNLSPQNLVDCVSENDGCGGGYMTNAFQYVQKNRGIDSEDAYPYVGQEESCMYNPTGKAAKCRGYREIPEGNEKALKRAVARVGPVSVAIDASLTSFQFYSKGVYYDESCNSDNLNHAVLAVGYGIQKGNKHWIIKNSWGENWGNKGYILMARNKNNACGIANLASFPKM
Procedure: as §2, §3

T1 sequence (P07711 114-333): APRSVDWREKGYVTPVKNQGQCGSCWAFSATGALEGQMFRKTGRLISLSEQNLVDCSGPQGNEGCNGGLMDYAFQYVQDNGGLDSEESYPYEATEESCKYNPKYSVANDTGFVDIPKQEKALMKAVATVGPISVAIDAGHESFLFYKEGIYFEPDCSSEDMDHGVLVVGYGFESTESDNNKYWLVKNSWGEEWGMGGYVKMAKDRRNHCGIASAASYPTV
T2 sequence (P25774 115-331): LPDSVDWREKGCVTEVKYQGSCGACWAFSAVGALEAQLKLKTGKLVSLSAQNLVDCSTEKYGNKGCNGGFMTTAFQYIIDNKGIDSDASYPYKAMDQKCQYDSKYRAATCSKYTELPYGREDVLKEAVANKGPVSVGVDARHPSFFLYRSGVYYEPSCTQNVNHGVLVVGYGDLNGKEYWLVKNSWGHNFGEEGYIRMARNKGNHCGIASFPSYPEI

Structure (SMILES) | Sel cat. L: Ki(cathepsin L)/Ki(calpain) ratio (cathepsin L) | Sel cat. S: Ki(cathepsin S)/Ki(calpain) ratio (cathepsin S) | Sel cat. B: Ki(cathepsin B)/Ki(calpain) ratio (cathepsin B) | Sel cat. K: Ki(cathepsin K)/Ki(calpain) ratio (cathepsin K)
NC(=O)C(=O)C(Cc1ccccc1)NC(=O)c1cccnc1-n1ccc(-c2ccc(N3CCOCC3)cc2Cl)n1 (stereo not shown) [Example 99, N-[3-Amino-2,3-dioxo-1-(phenylmethyl)propyl]-2-[3-(2-chloro-4-morpholin-4-ylphenyl)-1H-pyrazol-1-yl]pyridine-3-carboxamide] | ++ (++ means a Ki(cathepsin L)/Ki(calpain) ratio of ≧50) | ++ (++ means a Ki(cathepsin S)/Ki(calpain) ratio of ≧100) | ++ (++ means a Ki(cathepsin B)/Ki(calpain) ratio of ≧30) | ++ (++ means a Ki(cathepsin K)/Ki(calpain) ratio of ≧30)
NC(=O)C(=O)C(Cc1ccccc1)NC(=O)c1cccnc1-n1ccc(-c2cccc3ccccc23)n1 (stereo not shown) [Example 110, N-[3-Amino-2,3-dioxo-1-(phenylmethyl)propyl]-2-(3-naphthalen-1-yl-1H-pyrazol-1-yl)pyridine-3-carboxamide] | ++ (++ means a Ki(cathepsin L)/Ki(calpain) ratio of ≧50) | ++ (++ means a Ki(cathepsin S)/Ki(calpain) ratio of ≧100) | ++ (++ means a Ki(cathepsin B)/Ki(calpain) ratio of ≧30) | ++ (++ means a Ki(cathepsin K)/Ki(calpain) ratio of ≧30)
NC(=O)C(=O)C(Cc1ccccc1)NC(=O)c1cccnc1-n1cc2c(n1)-c1ccccc1OC2 (stereo not shown) [Example 100, N-[3-Amino-2,3-dioxo-1-(phenylmethyl)propyl]-2-chromeno[4,3-c]pyrazol-2(4H)-ylpyridine-3-carboxamide] | ++ (++ means a Ki(cathepsin L)/Ki(calpain) ratio of ≧50) | ++ (++ means a Ki(cathepsin S)/Ki(calpain) ratio of ≧100) | + (+ means 10≦Ki(cathepsin B)/Ki(calpain)<30) | ++ (++ means a Ki(cathepsin K)/Ki(calpain) ratio of ≧30)
NC(=O)C(=O)C(Cc1ccccc1)NC(=O)c1cccnc1-n1ccc(-c2ccccn2)n1 (stereo not shown) [Example 35, N-(3-Amino-1-benzyl-2,3-dioxopropyl)-2-(3-pyridin-2-yl-1H-pyrazol-1-yl)nicotinamide] | ++ (++ means a Ki(cathepsin L)/Ki(calpain) ratio of ≧50) | ++ (++ means a Ki(cathepsin S)/Ki(calpain) ratio of ≧100) | + (+ means 10≦Ki(cathepsin B)/Ki(calpain)<30) | + (+ means 10≦Ki(cathepsin K)/Ki(calpain)<30)
Cc1ccccc1-c1ccn(-c2ncccc2C(=O)NC(Cc2ccccc2)C(=O)C(N)=O)n1 (stereo not shown) [Example 93, N-[3-Amino-2,3-dioxo-1-(phenylmethyl)propyl]-2-[3-(2-methylphenyl)-1H-pyrazol-1-yl]pyridine-3-carboxamide] | ++ (++ means a Ki(cathepsin L)/Ki(calpain) ratio of ≧50) | ++ (++ means a Ki(cathepsin S)/Ki(calpain) ratio of ≧100) | ++ (++ means a Ki(cathepsin B)/Ki(calpain) ratio of ≧30) | + (+ means 10≦Ki(cathepsin K)/Ki(calpain)<30)
COc1ccc(F)cc1-c1ccn(-c2ncccc2C(=O)NC(Cc2ccccc2)C(=O)C(N)=O)n1 (stereo not shown) [Example 130, N-[3-Amino-2,3-dioxo-1-(phenylmethyl)propyl]-2-{3-[5-fluoro-2-(methyloxy)phenyl]-1H-pyrazol-1-yl}pyridine-3-carboxamide] | ++ (++ means a Ki(cathepsin L)/Ki(calpain) ratio of ≧50) | ++ (++ means a Ki(cathepsin S)/Ki(calpain) ratio of ≧100) | ++ (++ means a Ki(cathepsin B)/Ki(calpain) ratio of ≧30) | ++ (++ means a Ki(cathepsin K)/Ki(calpain) ratio of ≧30)
COc1ccc(CC(NC(=O)c2cccnc2-n2ccc(-c3ccc4c(c3)OC(F)(F)O4)n2)C(=O)C(N)=O)cc1 (stereo not shown) [Example 137, N-(3-Amino-1-{[4-(methyloxy)phenyl]methyl}-2,3-dioxopropyl)-2-[3-(2,2-difluoro-1,3-benzodioxol-5-yl)-1H-pyrazol-1-yl]pyridine-3-carboxamide] | ++ (++ means a Ki(cathepsin L)/Ki(calpain) ratio of ≧50) | ++ (++ means a Ki(cathepsin S)/Ki(calpain) ratio of ≧100) | + (+ means 10≦Ki(cathepsin B)/Ki(calpain)<30) | + (+ means 10≦Ki(cathepsin K)/Ki(calpain)<30)
COc1ccc(OC)c(-c2ccn(-c3ncccc3C(=O)NC(Cc3ccccc3)C(=O)C(N)=O)n2)c1 (stereo not shown) [Example 151, N-[3-Amino-2,3-dioxo-1-(phenylmethyl)propyl]-2-{3-[2,5-bis(methyloxy)phenyl]-1H-pyrazol-1-yl}pyridine-3-carboxamide] | ++ (++ means a Ki(cathepsin L)/Ki(calpain) ratio of ≧50) | – | ++ (++ means a Ki(cathepsin B)/Ki(calpain) ratio of ≧30) | ++ (++ means a Ki(cathepsin K)/Ki(calpain) ratio of ≧30)
N#Cc1cnc(-n2ccc(-c3ccccc3)n2)c(C(=O)NC(Cc2ccccc2)C(=O)C(N)=O)c1 (stereo not shown) [Example 82, N-(3-Amino-1-benzyl-2,3-dioxopropyl)-5-cyano-2-(3-phenyl-1H-pyrazol-1-yl)nicotinamide] | ++ (++ means a Ki(cathepsin L)/Ki(calpain) ratio of ≧50) | – | ++ (++ means a Ki(cathepsin B)/Ki(calpain) ratio of ≧30) | ++ (++ means a Ki(cathepsin K)/Ki(calpain) ratio of ≧30)
